# Tests used:
# [1] = tested on: Lewis lung carcinoma (LLC) cells; test: Lewis lung carcinoma in vitro culture viability, Cell Titer Glo Assay; format: cell-based, mouse
# Experimental: Lewis lung carcinoma (LLC) cells were cultured in vitro the presence of a multiple concentrations of the RARγ agonists GA1E, GA2E, and GA3Ep and viability assessed by the Cell Titer Glo Assay®.
# TIL in JIMT-1 tumors = test: Flow cytometry of JIMT-1 tumors from NSG-B2M mice, Day 26; format: in vivo, human
# Text: (§1) The mice were sacrificed on Day 26 of the study and the tumors collected and analyzed by flow cytometry. Statistical analysis was by ordinary one-way ANOVA with Tukey's test for significance comparison between groups. Gates were set to identify single cells by forward light scatter, live cells as single cells based on side scatter and staining with the vital stain Fixable Viability Dye eFluor™ 780, white blood cells from live cells based on side scatter and staining with anti-CD45, lymphocytes from white blood cells based on side and forward light scatter, and total T lymphocytes (tot T) from lymphocytes based on side scatter and staining with anti-CD3. Total T lymphocytes were divided into CD4^+ (TH) and CD8^+ (TC) lymphocytes based on staining with and anti-CD4 and CD8 antibodies and subsets assessed. The following observations were made on a per-mg of tumor tissue basis.
# TIL in EMT6 tumors = test: Flow cytometry of excised EMT6 tumors (Example 4); format: in vivo, mouse
# Text: At the end of the study of Example 3, the tumors were excised, the cells disaggregated and dispersed without use of proteases, stained with various agents, and subjected to flow cytometry. FIG. 5A-B present the results of the flow cytometry both as a percentage of cells and as the number of cells per tumor. […] Of these live cells, a substantial proportion were leukocytes (FIG. 5A, “CD45” panels). […] The majority of the T cells were CD4+(FIG. 5A, “CD4” panels), expected to be predominantly helper cells. Of the CD4^+ cells, only small proportions were T memory cells (expected to be predominantly TH1 memory cells) based on intracellular staining for IFNγ (FIG. 5B, “TH IFGγ” panels), TH17 cells based in intracellular staining for IL-17 (FIG. 5B, “TH IL17” panels), or Treg cell based on staining for CD25 and FoxP3 (FIG. 5B, “Treg” panels). About 25-30% of the T cells were CD8^+ (FIG. 5B, “CD8 T” panels), expected to be predominantly cytotoxic cells.
# TIL in LLC tumors = test: Flow cytometry of LLC tumors, Day 13; format: in vivo, mouse
# Text: as §1, with “13” for “26”, “assessed (FIG. 20).” for “assessed.”
# JIMT-1 cells = test: NSG-B2M mice implanted with JIMT-1 Her2+ breast cancer cells and human PBMC; format: in vivo
# Experimental: The NSG-B2M mouse model is a severely immunocompromised animal, combining the lesions non-obese diabetic (NOD), severe combined immunodeficiency (SCID), IL-2 receptor γ null, and β2-microglobulin null. Human tumor cells readily engraft in this model and cells from the human immune system can also be engrafted in order to study various modes of cancer immunotherapy. Thus, one can model a human immune response to a human tumor in this system. Female NSG-B2M mice were injected in the mammary fat pad with 5×10^6 JIMT-1 cells (human breast carcinoma cell line) suspended in 0.1 mL of phosphate-buffered saline (PBS) with an equal volume of Matrigel®. Once tumors reached a volume of 100-200 mm^3, the mice were implanted with 1×10^7 human PBMC by subcutaneous injection into the right flank (pre-randomization). PBMC were obtained from two donors and distributed evenly between groups. When tumors reached an average tumor volume of 200-250 mm^3 (about 3 days post-PBMC injection) animals were matched by tumor volume into treatment and control groups, and dosing initiated. This first day of dosing was defined as Day 0. The mice were administered a daily oral dose of 10 mL/kg of 10% dimethyl sulfoxide (DMSO) in PBS as vehicle control or 10 mg/kg of GA2E dissolved in 10% DMSO in PBS as the treatment.
# Tumor volume was measured twice weekly and on the day a study endpoint was reached. The mice were also weighed twice weekly and on the day a study endpoint was reached.
# Study endpoint was defined as when the mean tumor volume of the control group (uncensored) reaches 1500 mm^3. If this occurs before Day 28, treatment groups and individual mice were permitted to be dosed and measured up to Day 28.
# [2] = per mg tumor, vs controls, P<0.0001
# [3] = per mg tumor, vs controls, P<0.001
# [4] = per mg tumor, vs controls, P<0.05
# [5] = per mg tumor, vs controls, P<0.05, listed as GA2
# [6] = per mg tumor, vs controls, P>0.05
# [7] = 10 mg/kg oral daily, end of study
smiles,measurement,setting,value
"CC1(C)CCC(C)(C)c2cc(C(/C=C/c3ccc(C(=O)O)cc3F)=N/O)ccc21 [GA2E, 3-fluoro-4-((1E,3E)-3-(hydroxyimino)-3-(5,5,8,8-tetramethyl-5,6,7,8-tetrahydronaphthalen-2-yl)prop-1-en-1-yl)benzoic acid]",effect on viability as concentrations exceeded 10 μM,[1],rapidly became toxic
same,effect on viability at concentrations below 1 μM,[1],no effect
same,IC50,"[1]; Mus musculus, Lewis lung carcinoma",46 µM
same,"proportion of tumor cells expressing PD-L1, CD18β, CD58 (LFA-3), and Her2","TIL in JIMT-1 tumors; JIMT-1 tumor cells, flow cytometry",did not significantly alter
same,concentration of T central memory CD8+ cells (CCR7+ CD45AR−) in tumor,"TIL in JIMT-1 tumors; per mg tumor, vs controls",no significant change
same,concentration of T effector memory CD8+ cells (CCR7− CD45AR−) in tumor,"TIL in JIMT-1 tumors; per mg tumor, vs controls",no significant change
same,concentration of naïve CD8+ cells (CCR7+ CD45AR+) in tumor,"TIL in JIMT-1 tumors; per mg tumor, vs controls",no significant change
same,concentration of CD8+ TIL expressing PD-1,TIL in JIMT-1 tumors; [2],increased
same,concentration of terminally differentiated CD8+ T effector cells (CCR7− CD45AR+),TIL in JIMT-1 tumors; [2],substantial increase
same,concentration of CD8+ TIL expressing CD18β,TIL in JIMT-1 tumors; [3],increased
same,concentration of total CD8+ lymphocytes in tumor,TIL in JIMT-1 tumors; [3],increased
same,concentration of CD8+ TIL expressing CD54,"TIL in JIMT-1 tumors; per mg tumor, vs controls, P<0.01",increased
same,concentration of CD4+ TIL expressing CD18β,TIL in JIMT-1 tumors; [4],increased
same,concentration of CD4+ TIL expressing CD54,TIL in JIMT-1 tumors; [4],decreased
same,concentration of CD4+ TIL expressing PD-1,TIL in JIMT-1 tumors; [4],decreased
same,concentration of T central memory CD4+ cells (CCR7+ CD45AR−),TIL in JIMT-1 tumors; [4],decreased
same,concentration of T effector memory CD4+ cells (CCR7− CD45AR−),TIL in JIMT-1 tumors; [4],decreased
same,concentration of naïve CD4+ cells (CCR7+ CD45AR+),TIL in JIMT-1 tumors; [4],decreased
same,concentration of total CD4+ lymphocytes in tumor,TIL in JIMT-1 tumors; [4],decreased
same,concentration of CD4+ TIL expressing CD54,TIL in JIMT-1 tumors; [5],increased
same,concentration of CD4+ TIL expressing PD-1,TIL in JIMT-1 tumors; [5],increased
same,concentration of CD4+ TIL expressing FoxP3,TIL in JIMT-1 tumors; [6],increased
same,concentration of terminally differentiated CD4+ T effector cells (CCR7− CD45AR+),TIL in JIMT-1 tumors; [6],decreased
same,T cells (anti-CD3) as mean percentage of the leukocytes in the tumor,TIL in EMT6 tumors; [7],about 30%
same,number of TIL,TIL in EMT6 tumors; [7],increased
same,proportion of CD8+ T cells that were memory cells (intracellular IFNγ),"TIL in EMT6 tumors; vs vehicle control, did not achieve statistical significance",numerically increased
same,proportion of Treg cells as a percentage of total T cell,TIL in LLC tumors; P<0.001,significantly reduced
same,concentration of T helper cells,"TIL in LLC tumors; per mg tumor, 10 and 25 mg/kg",did not change significantly
same,concentration of T regulatory cells,"TIL in LLC tumors; per mg tumor, 10 and 25 mg/kg",did not change significantly
same,concentration of central memory CD8+ T cells,"TIL in LLC tumors; per mg tumor, 10 and 25 mg/kg",did not change significantly
same,concentration of naïve CD8+ T cells,"TIL in LLC tumors; per mg tumor, 10 and 25 mg/kg",did not change significantly
same,concentration of total CD4+ T cells,"TIL in LLC tumors; per mg tumor, 10 and 25 mg/kg",did not change significantly
same,concentration of effector memory CD8+ T cells,"TIL in LLC tumors; per mg tumor, P<0.01 for the 25 mg/kg dosage",increased
same,"concentration of cytotoxic cells (CD8, intracellular IFN-γ)","TIL in LLC tumors; per mg tumor, P<0.05 for the 25 mg/kg dosage",increased
same,concentration of total CD8+ lymphocytes in tumor,"TIL in LLC tumors; per mg tumor, vs controls, P<0.05 for the 25 mg/kg dosage",increased
same,tumor volume after drug holiday started on Day 13,"JIMT-1 cells; 10 mg/kg daily oral until Day 12, then drug holiday",tumor shrinkage subsequent to Day 19
same,tumor growth while the mice were receiving drug,"JIMT-1 cells; 10 mg/kg daily oral, Day 0 to Day 12",No impact on tumor growth
same,weight loss,"JIMT-1 cells; 10 mg/kg daily oral, by Day 12",> 10%
